From patent US11530197B2, “Analogs for the treatment of disease” (Insilico Medicine IP Limited, priority 2021, dated 2022)
pIC50: −log10 of the molar value.

Columns and labels:
[1] = test system: Collagen I (COL1A1) in LX-2 cells; experiment: Collagen and Alpha-SMA in LX-2 (Western blot after TGF-β stimulation); type: cell-based; conditions: Homo sapiens, 4 ng/ml TGF-β for 48 hours, Collagen I normalized to GAPDH;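 further: cells serum-starved in 0.4% FBS before treatment, lysates analysed by Western blot, DMSO-only wells as blank and TGF-β alone as maximal induction control, three independent experiments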
Procedure: 3 ml of 0.25% Trypsin-EDTA solution was then added and cells were incubated at 37° C. for 5 min for each T150-flask. 7 ml of culture medium was added to stop trypsinization. The cells were centrifuged at 300×g for 5 min. Supernatant medium was discarded and cells were re-suspended with fresh culture medium. The cells were counted with Cell viability analyzer. 5.0E+05 cells/well were seeded into 6-well plate containing 2.0 mL of culture medium. The cells were cultured overnight at 37° C. The next day, the complete medium was replaced with medium with 0.4% FBS for starvation. […] In parallel, medium containing only DMSO and TGF-β was used as blank control and positive control, respectively. TGF-β induction was used as maximum induction positive control. The culture medium was discarded at the end of induction. Cells were washed once using ice-cold DPBS. RIPA buffer was added to lyse the cells for 20 min. The cells were then scraped off the culture plate, collected in a tube and centrifuged. The supernatant was stored at −80° C. The total amount of protein in the lysate was determined using BCA Protein Assay kit. The cell treatment of fibrosis assay was performed in three independent experiments for each compound.
All the lysate samples were adjusted to the same protein concentration with RIPA buffer after BCA assay. […] The denatured samples were used for electrophoresis. Western blot was performed according to the standard protocols. The same volume of protein was loaded onto 4-12% Bis-Tris gel. Duplicate lysates of samples were loaded onto two gels. The gels were run for 0.5 h at 80 V and 120 V for another 1 h. When the electrophoresis was completed, the gels containing target protein Collagen I (COL1A1) were transferred onto NC membrane using Trans-Blot Electrophoretic Transfer Cell for 90 min at 100 V. The iBlot™ 2 Gel Transfer Device was used to transfer α-SMA and GAPDH at 20 V for 7 min. All the membranes were blocked in TBST buffer with 5% nonfat dry milk in at RT for 1 h and then incubated with primary antibody anti-COL1A1 and anti-α-SMA in TBST buffer containing 5% BSA at 4° C. overnight. For GAPDH detection, the membrane with α-SMA immunoblots were stripped with Restore™ Western Blot Stripping Buffer after detection. And the membranes were re-blocked and then re-probed with primary antibody anti-GAPDH antibody at room temperature (RT) for 2 h. After incubation with primary antibodies, membranes were washed with TBST, then incubated with the secondary antibody at RT for 1 h. Blots were visualized using the instrument Image Quant LAS-4000. The chemiluminescent signals derived from ECL Western blotting reagents were captured. The bands integrated intensity from 16-bit blot images was used for quantitation with the software (1D component of ImageQuant TL). The quantification raw data of the two duplicated gels was obtained from ImageQuant TL. Collagen I and α-SMA proteins expression level was normalized to GAPDH for each gel. The average normalization data of the two duplicated gels was calculated and applied to calculate IC50 using an equation for a sigmoidal dose response (variable slope) of GraphPad™ Prism software. The equation is Y=Bottom+(Top-Bottom)/(1+10^((Log IC50−X)*Hillslope). Note: X is the logarithm of compound concentration, Y is the average normalization data

[2] = Metabolic stability in human liver microsomes; type: in vitro ADME; conditions: LM Clint; 1 μM test compound, 0.5 mg protein/mL microsome, 37° C., up to 60 min;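 further: NADPH-supplemented human liver microsomes sampled at 0, 5, 10, 20, 30 and 60 min, parent compound quantified by LC-MS/MS, intrinsic clearance from first-order decay, no-cofactor incubation as control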
Procedure: Test Compound an Control Working Solution Preparation: Working solution: 5 μL of compound and control stock solution (10 mM in dimethyl sulfoxide (DMSO)) were diluted with 495 µL of acetonitrile (ACN) (intermediate solution concentration: 100 μM, 99% ACN).
Preparation Procedure: The appropriate amount of NADPH powder was weighed and diluted into a 10 mM MgCl2 solution (working solution concentration: 10 unit/mL; final concentration in reaction system: 1 unit/mL).
Preparation Procedure: The appropriate concentrations of microsome working solutions were prepared in 100 mM potassium phosphate buffer.
Stop Solution Preparation: Cold (4° C.) acetonitrile (ACN) containing 200 ng/mL tolbutamide and 200 ng/mL labetalol as internal standards (IS) was used as the stop solution.
Dilute liver microsomes to 0.56 mg/mL in 100 mM phosphate buffer.
Transfer 445 μL microsome working solutions (0.56 mg/mL) into pre-warmed ‘Incubation’ plates T60 and NCF60, Then pre-incubate ‘Incubation’ plates T60 and NCF60 for 10 min at 37° C. with constant shaking. Transfer 54 μL liver microsomes to blank plate, then add 6 μL NAPDH cofactor to blank plate, and then add 180 μL quenching solution to blank plate.
2.5.4 Add 5 μL compound working solution (100 μM) into ‘incubation’ plates (T60 and NCF60) containing microsomes and mix 3 times thoroughly.
For the NCF60 plate, add 50 μL of buffer and mix 3 times thoroughly. Start timing; plate will be incubated at 37° C. for 60 min while shaking.
For the T60 plate, mix 3 times thoroughly, and immediately remove 54 μL mixture for the 0-min time point to ‘Quenching’ plate. Then add 44 μL NAPDH cofactor to incubation plate (T60). Start timing; plate will be incubated at 37° C. for 60 min while shaking.
At 5, 10, 20, 30, and 60 min, add 180 μL quenching solution to ‘Quenching’ plates, mix once, and serially transfer 60 μL sample from T60 plate per time point to ‘Quenching’ plates.
For NCF60: mix once, and transfer 60 μL sample from the NCF60 incubation to ‘Quenching’ plate containing quenching solution at the 60-min time point.
All sampling plates are shaken for 10 min, then centrifuged at 4000 rpm for 20 minutes at 4° C.
Transfer 80 μL supernatant into 240 μL HPLC water, and mix by plate shaker for 10 min.
Each bioanalysis plate was sealed and shaken for 10 minutes prior to LC-MS/MS analysis.
The equation of first order kinetics was used to calculate T½ and Intrinsic clearance (CLint mic) in (L/min/mg).

MAP4K4 (h) = MAP4K4 (h) (Homo sapiens (Human), UniProt O95819); experiment: MAP4K4 Human STE Kinase Enzymatic Radiometric Assay; type: biochemical; conditions: ATP 200 μM; 40 min at room temperature;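 further: kinase activity remaining relative to the DMSO control, IC50 derived from sigmoidal variable-slope curve fits, no preincubation of compound with enzyme before ATP start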
MAP4K4 (h), sequence (O95819 whole entry): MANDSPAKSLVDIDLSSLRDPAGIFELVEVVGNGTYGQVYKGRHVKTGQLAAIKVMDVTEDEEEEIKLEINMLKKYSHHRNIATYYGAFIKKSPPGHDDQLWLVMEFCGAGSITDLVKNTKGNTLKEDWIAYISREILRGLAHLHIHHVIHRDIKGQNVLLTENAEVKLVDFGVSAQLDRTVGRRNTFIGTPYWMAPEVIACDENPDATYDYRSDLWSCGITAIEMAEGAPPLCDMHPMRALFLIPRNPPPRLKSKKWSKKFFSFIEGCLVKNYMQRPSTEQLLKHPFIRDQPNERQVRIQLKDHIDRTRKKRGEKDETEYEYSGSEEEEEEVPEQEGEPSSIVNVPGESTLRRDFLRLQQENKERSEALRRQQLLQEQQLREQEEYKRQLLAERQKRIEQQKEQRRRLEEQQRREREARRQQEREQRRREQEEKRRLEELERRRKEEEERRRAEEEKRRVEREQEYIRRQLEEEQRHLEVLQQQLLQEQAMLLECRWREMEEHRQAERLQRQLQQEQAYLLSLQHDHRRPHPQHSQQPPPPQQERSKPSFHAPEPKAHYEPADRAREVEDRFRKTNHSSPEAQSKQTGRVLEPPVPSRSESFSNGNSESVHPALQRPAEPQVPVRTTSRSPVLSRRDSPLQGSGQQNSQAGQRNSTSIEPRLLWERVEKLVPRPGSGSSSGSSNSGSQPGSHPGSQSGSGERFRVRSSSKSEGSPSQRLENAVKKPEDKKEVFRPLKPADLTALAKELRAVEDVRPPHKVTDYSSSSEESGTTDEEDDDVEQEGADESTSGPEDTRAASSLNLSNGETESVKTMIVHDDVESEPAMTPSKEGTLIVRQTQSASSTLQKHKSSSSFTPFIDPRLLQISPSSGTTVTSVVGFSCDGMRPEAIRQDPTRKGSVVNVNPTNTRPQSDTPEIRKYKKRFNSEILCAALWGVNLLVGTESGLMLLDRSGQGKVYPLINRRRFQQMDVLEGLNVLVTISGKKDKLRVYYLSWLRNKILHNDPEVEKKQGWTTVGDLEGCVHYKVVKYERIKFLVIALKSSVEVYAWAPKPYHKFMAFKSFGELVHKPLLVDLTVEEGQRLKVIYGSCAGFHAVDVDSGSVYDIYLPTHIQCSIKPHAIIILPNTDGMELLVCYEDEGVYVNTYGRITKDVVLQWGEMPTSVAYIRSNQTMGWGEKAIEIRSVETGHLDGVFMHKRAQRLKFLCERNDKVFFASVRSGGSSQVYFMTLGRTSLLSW
Procedure: (§1) The reaction is initiated by the addition of the Mg/ATP mix. After incubation for 40 minutes at room temperature, the reaction is stopped by the addition of phosphoric acid to a concentration of 0.5%.
INCUBATION: 40 min at Room temperature
COMPOUND DILUTION SCHEME: All compounds supplied were prepared to a working stock of 50× final assay concentration in 100% DMSO. Where appropriate, more concentrated stocks were diluted manually to 50× using 100% DMSO. Compounds supplied as powders were reconstituted to a 10 mM stock in 100% DMSO before further dilution to 50×.
ASSAY PROCEDURE: The required volume of the 50× stock of test compound was added to the assay before a reaction mix containing the enzyme and substrate was added. The reaction was initiated by the addition of ATP at the selected concentration. There was no pre-incubation of the compound with the enzyme/substrate mix prior to ATP addition.
Results are expressed as kinase activity remaining, as a percentage of the DMSO control. This is calculated using the following formula: Mean of Sample Counts−Mean of Blank Counts/Mean of Control Counts
(§2) For IC50 determinations, data are analyzed using XLFit version 5.3 (ID Business Solutions). Sigmoidal dose-response (variable slope) curves are fit based on the mean result for each test concentration using non-linear regression analysis. Where the top and/or bottom of the curve fall >10% out with 100 and 0, respectively, either or both of these limits may be constrained at 100 and 0, provided that the QC criterion on R2 is met.

TNIK(h) = TNIK(h) (Homo sapiens (Human), UniProt Q9UKE5); experiment: TNIK Human STE Kinase Enzymatic Radiometric Assay; type: biochemical; conditions: ATP 70 μM; 40 min at room temperature; read-out: TNIK (IC50);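 further: remaining kinase activity relative to DMSO control, compound added without preincubation, reaction started with ATP, IC50 from variable-slope sigmoidal dose-response fit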
TNIK(h), sequence (Q9UKE5 whole entry): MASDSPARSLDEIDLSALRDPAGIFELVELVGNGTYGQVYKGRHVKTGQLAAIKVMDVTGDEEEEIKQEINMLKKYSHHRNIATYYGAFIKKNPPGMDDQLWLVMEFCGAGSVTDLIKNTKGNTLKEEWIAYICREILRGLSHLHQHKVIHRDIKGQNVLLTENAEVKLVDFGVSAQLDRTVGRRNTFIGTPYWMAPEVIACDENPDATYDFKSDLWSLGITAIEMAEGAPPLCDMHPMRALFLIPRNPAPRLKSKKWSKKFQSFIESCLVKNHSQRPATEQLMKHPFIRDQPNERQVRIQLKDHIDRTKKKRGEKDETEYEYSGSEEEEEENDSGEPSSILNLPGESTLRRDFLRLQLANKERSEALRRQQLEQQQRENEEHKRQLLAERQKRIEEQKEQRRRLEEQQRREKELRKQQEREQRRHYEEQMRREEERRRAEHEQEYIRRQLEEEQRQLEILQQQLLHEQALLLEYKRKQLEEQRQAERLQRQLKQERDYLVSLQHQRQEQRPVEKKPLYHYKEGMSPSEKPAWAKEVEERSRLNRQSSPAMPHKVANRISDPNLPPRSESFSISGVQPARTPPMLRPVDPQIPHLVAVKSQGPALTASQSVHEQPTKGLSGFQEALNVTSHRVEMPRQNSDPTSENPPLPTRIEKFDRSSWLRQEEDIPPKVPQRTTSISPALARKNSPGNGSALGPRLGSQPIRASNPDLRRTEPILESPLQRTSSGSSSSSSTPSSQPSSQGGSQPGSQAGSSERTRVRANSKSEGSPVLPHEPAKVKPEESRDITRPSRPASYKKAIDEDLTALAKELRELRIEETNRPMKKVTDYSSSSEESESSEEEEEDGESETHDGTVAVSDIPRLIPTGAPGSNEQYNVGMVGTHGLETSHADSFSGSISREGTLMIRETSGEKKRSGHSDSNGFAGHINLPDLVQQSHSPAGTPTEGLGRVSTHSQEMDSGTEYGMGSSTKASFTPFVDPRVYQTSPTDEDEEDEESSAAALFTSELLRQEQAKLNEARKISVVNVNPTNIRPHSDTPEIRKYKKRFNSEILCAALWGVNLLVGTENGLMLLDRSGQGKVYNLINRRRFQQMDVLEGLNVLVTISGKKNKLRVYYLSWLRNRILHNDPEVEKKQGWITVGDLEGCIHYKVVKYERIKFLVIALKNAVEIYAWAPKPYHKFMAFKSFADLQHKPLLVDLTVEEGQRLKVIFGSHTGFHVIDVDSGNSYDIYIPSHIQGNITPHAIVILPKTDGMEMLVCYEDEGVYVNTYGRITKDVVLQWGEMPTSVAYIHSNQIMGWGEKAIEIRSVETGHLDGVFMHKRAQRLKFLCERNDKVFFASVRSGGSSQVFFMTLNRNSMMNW
Procedure: as §1
INCUBATION: 40 min at Room temperature
COMPOUND DILUTION SCHEME: All compounds supplied were prepared to a working stock of 50× final assay concentration in 100% DMSO. Where appropriate, more concentrated stocks were diluted manually to 50× using 100% DMSO. Compounds supplied as powders were reconstituted to a 10 mM stock in 100% DMSO before further dilution to 50×. ASSAY PROCEDURE: The required volume of the 50× stock of test compound was added to the assay before a reaction mix containing the enzyme and substrate was added. The reaction was initiated by the addition of ATP at the selected concentration. There was no pre-incubation of the compound with the enzyme/substrate mix prior to ATP addition. […] Results are expressed as kinase activity remaining, as a percentage of the DMSO control. This is calculated using the following formula:
as §2

| SMILES | pIC50 [1] | Human Liver Microsome (μM/min/mg) [2] | pIC50 (MAP4K4 (h)) | pIC50 (TNIK(h)) |
| --- | --- | --- | --- | --- |
| O=C(Nc1ccccc1F)c1occc1-c1c(-c2cccnc2)ncn1C1CCCC1 [Compound 1] | < 9.00 | – | – | – |
| O=C(Nc1ccccc1F)c1occc1-c1c(-c2ccc(F)cc2)ncn1CC1CCOC1 (stereo not shown) [Compound 4] | < 9.00 | – | – | – |
| O=C(NC1CCOCC1)c1ccc(-c2c(-c3ccc(F)cc3)ncn2C2CCCC2)o1 [Compound 39] | < 9.00 | – | – | – |
| CC(C)n1cnc(-c2ccc(F)cc2)c1-c1nc(C(=O)Nc2ccc(N3CCN(S(N)(=O)=O)CC3)cc2)c[nH]1 [Compound 97, 5′-(4-fluorophenyl)-3′-isopropyl-N-(4-(4-sulfamoylpiperazin-1-yl)phenyl)-1H,3′H-[2,4′-biimidazole]-4-carboxamide] | – | + (>100 μM/min/mg as +) | 6.92 to 7.92 | 6.92 to 7.92 |
| CC(C)n1cnc(-c2ccc(F)cc2)c1-c1nc(C(=O)Nc2ccc(N3CCN(C(N)=O)CC3)cc2)c[nH]1 [Compound 99, N-(4-(4-carbamoylpiperazin-1-yl)phenyl)-5′-(4-fluorophenyl)-3′-isopropyl-1H,3′H-[2,4′-biimidazole]-4-carboxamide] | – | ++ (10-100 μM/min/mg as ++) | < 6.92 | < 6.92 |
| CC(C)n1cnc(-c2ccc(F)cc2)c1-c1nc(C(=O)Nc2ccc(CCC(=O)O)cc2)c[nH]1 [Compound 102, 3-(4-(5′-(4-fluorophenyl)-3′-isopropyl-1H,3′H-[2,4′-biimidazole]-4-carboxamido)phenyl)propanoic acid] | – | +++ (1-10 μM/min/mg as +++) | < 6.92 | 6.92 to 7.92 |
| CC(C)n1cnc(-c2ccc(F)cc2)c1-c1nc(C(=O)Nc2ccc(C(=O)O)cc2)c[nH]1 [Compound 113, 4-(5′-(4-fluorophenyl)-3′-isopropyl-1H,3′H-[2,4′-biimidazole]-4-carboxamido)benzoic acid] | – | +++ (1-10 μM/min/mg as +++) | < 6.92 | 7.92 to 9.00 |
| CN1CCN(c2ccc(NC(=O)c3c[nH]c(-c4c(-c5ccc(F)cc5)ncn4C)n3)cc2)CC1 [Compound 119, 5′-(4-fluorophenyl)-3′-methyl-N-(4-(4-methylpiperazin-1-yl)phenyl)-1H,3′H-[2,4′-biimidazole]-4-carboxamide] | – | ++ (10-100 μM/min/mg as ++) | < 6.92 | < 6.92 |
| CC(C)n1cnc(-c2ccc(F)cc2)c1-c1nc(C(=O)Nc2ccc(CCCCC(=O)O)cc2)c[nH]1 [Compound 132, 5-(4-(5′-(4-fluorophenyl)-3′-isopropyl-1H,3′H-[2,4′-biimidazole]-4-carboxamido)phenyl)pentanoic acid] | – | +++ (1-10 μM/min/mg as +++) | 6.92 to 7.92 | 6.92 to 7.92 |
| CC(C)n1cnc(-c2ccc(C(F)(F)F)cc2)c1-c1nc(C(=O)Nc2ccc(CCC(=O)O)cc2)c[nH]1 [Compound 133, 3-(4-(3′-isopropyl-5′-(4-(trifluoromethyl)phenyl)-1H,3′H-[2,4′-biimidazole]-4-carboxamido)phenyl)propanoic acid] | – | +++ (1-10 μM/min/mg as +++) | < 6.92 | < 6.92 |
| CC(C)n1cnc(-c2ccc(C(F)(F)F)cc2)c1-c1nc(C(=O)Nc2ccc(N3CCN(CCO)CC3)cc2)c[nH]1 [Compound 134] | – | ++ (10-100 μM/min/mg as ++) | < 6.92 | < 6.92 |
| CN1CCN(c2ccc(NC(=O)c3c[nH]c(-c4c(-c5ccc(F)cc5)ncn4CC(C)(C)C)n3)cc2)CC1 [Compound 135, 5′-(4-fluorophenyl)-N-(4-(4-methylpiperazin-1-yl)phenyl)-3′-neopentyl-1H,3′H-[2,4′-biimidazole]-4-carboxamide] | – | + (>100 μM/min/mg as +) | < 6.92 | 6.92 to 7.92 |
| CC(C)n1cnc(-c2ccc(Cl)cc2)c1-c1nc(C(=O)Nc2ccc(CCC(=O)O)cc2)c[nH]1 [Compound 137, 3-(4-(5′-(4-chlorophenyl)-3′-isopropyl-1H,3′H-[2,4′-biimidazole]-4-carboxamido)phenyl)propanoic acid] | – | +++ (1-10 μM/min/mg as +++) | < 6.92 | 7.92 to 9.00 |
| CC(C)n1cnc(-c2ccc(C(F)(F)F)cc2)c1-c1nc(C(=O)Nc2ccc(N3CCN(C)CC3)cc2)c[nH]1 [Compound 142, 3′-isopropyl-N-(4-(4-methylpiperazin-1-yl)phenyl)-5′-(4-(trifluoromethyl)phenyl)-1H,3′H-[2,4′-biimidazole]-4-carboxamide] | – | + (>100 μM/min/mg as +) | < 6.92 | < 6.92 |
| O=C(Nc1ccc(N2CCN(CCO)CC2)cc1)c1c[nH]c(-c2c(-c3ccc(F)cc3)ncn2[C@H]2CC[C@H](O)CC2)n1 [Compound 158, 5′-(4-fluorophenyl)-3′-((1r,4r)-4-hydroxycyclohexyl)-N-(4-(4-(2-hydroxyethyl)piperazin-1-yl)phenyl)-1H,3′H-[2,4′-biimidazole]-4-carboxamide] | – | +++ (1-10 μM/min/mg as +++) | 6.92 to 7.92 | 7.92 to 9.00 |
| C[N+]1([O-])CCN(c2ccc(NC(=O)c3c[nH]c(-c4c(-c5ccc(F)cc5)ncn4CC(F)(F)F)n3)cc2)CC1 [Compound 166, 4-(4-(5′-(4-fluorophenyl)-3′-(2,2,2-trifluoroethyl)-1H,3′H-[2,4′-biimidazole]-4-carboxamido)phenyl)-1-methylpiperazine 1-oxide] | – | +++ (1-10 μM/min/mg as +++) | < 6.92 | < 6.92 |
| CN1CCN(c2ccc(NC(=O)c3c[nH]c(-c4c(-c5ccc(F)cc5)ncn4[C@H]4CC[C@@H](O)CC4)n3)cc2)CC1 [Compound 172] | – | – | – | 6.92 to 7.92 |
| CN1CCN(c2ccc(NC(=O)c3c[nH]c(-c4ncn(C(F)F)c4-c4ccc(F)cc4)n3)cc2)CC1 [Compound 175] | – | – | – | 7.92 to 9.00 |
| CC(C)n1cnc(-c2ccc(F)cc2)c1-c1nc(C(=O)Nc2ccc(N3CCNCC3)cc2)c[nH]1 [Compound 181, 5′-(4-fluorophenyl)-3′-isopropyl-N-(4-(piperazin-1-yl)phenyl)-1H,3′H-[2,4′-biimidazole]-4-carboxamide] | – | ++ (10-100 μM/min/mg as ++) | 6.92 to 7.92 | 6.92 to 7.92 |
| CC(C)n1cnc(-c2ccc(F)cc2)c1-c1nc(C(=O)Nc2ccc(N3CCN(C)C(=O)C3)cc2)c[nH]1 [Compound 185, 5′-(4-fluorophenyl)-3′-isopropyl-N-(4-(4-methyl-3-oxopiperazin-1-yl)phenyl)-1H,3′H-[2,4′-biimidazole]-4-carboxamide] | 9.00 to 10.00 | – | 6.92 to 7.92 | 6.92 to 7.92 |
| CC(C)n1cnc(-c2ccc(F)cc2)c1-c1nc(C(=O)Nc2ccc(N3C[C@H]4CC[C@@H](C3)N4C)cc2)c[nH]1 [Compound 186, 5′-(4-fluorophenyl)-3′-isopropyl-N-(4-((1R,5S)-8-methyl-3,8-diazabicyclo[3.2.1]octan-3-yl)phenyl)-1H,3′H-[2,4′-biimidazole]-4-carboxamide] | – | – | 7.92 to 9.00 | 7.92 to 9.00 |
| CC(=O)N1CCN(c2ccc(NC(=O)c3c[nH]c(-c4c(-c5ccc(F)cc5)ncn4C(C)C)n3)cc2)CC1 [Compound 188, N-(4-(4-acetylpiperazin-1-yl)phenyl)-5′-(4-fluorophenyl)-3′-isopropyl-1H,3′H-[2,4′-biimidazole]-4-carboxamide] | 9.00 to 10.00 | – | 6.92 to 7.92 | 7.92 to 9.00 |
| CC(C)n1cnc(-c2ccc(F)cc2)c1-c1nc(C(=O)Nc2ccc(N3CCN(CC(F)(F)F)CC3)cc2)c[nH]1 [Compound 189, 5′-(4-fluorophenyl)-3′-isopropyl-N-(4-(4-(2,2,2-trifluoroethyl)piperazin-1-yl)phenyl)-1H,3′H-[2,4′-biimidazole]-4-carboxamide] | 9.00 to 10.00 | – | 6.92 to 7.92 | 6.92 to 7.92 |
| CC1CN(c2ccc(NC(=O)c3c[nH]c(-c4c(-c5ccc(F)cc5)ncn4CC(F)(F)F)n3)cc2)CC(C)N1C (stereo not shown) [Compound 190, 5′-(4-fluorophenyl)-3′-(2,2,2-trifluoroethyl)-N-(4-(3,4,5-trimethylpiperazin-1-yl)phenyl)-1H,3′H-[2,4′-biimidazole]-4-carboxamide] | > 10.00 | – | 6.92 to 7.92 | 7.92 to 9.00 |
| CC(=O)N1CCN(c2ccc(NC(=O)c3c[nH]c(-c4c(-c5ccc(F)cc5)ncn4CC(F)(F)F)n3)cc2)CC1 [Compound 191, N-(4-(4-acetylpiperazin-1-yl)phenyl)-5′-(4-fluorophenyl)-3′-(2,2,2-trifluoroethyl)-1H,3′H-[2,4′-biimidazole]-4-carboxamide] | 9.00 to 10.00 | – | 6.92 to 7.92 | 6.92 to 7.92 |
| O=C(Nc1ccc(N2CCN(CC(F)(F)F)CC2)cc1)c1c[nH]c(-c2c(-c3ccc(F)cc3)ncn2CC(F)(F)F)n1 [Compound 192, 5′-(4-fluorophenyl)-3′-(2,2,2-trifluoroethyl)-N-(4-(4-(2,2,2-trifluoroethyl)piperazin-1-yl)phenyl)-1H,3′H-[2,4′-biimidazole]-4-carboxamide] | > 10.00 | – | < 6.92 | 6.92 to 7.92 |
| CN1[C@@H]2CC[C@H]1CN(c1ccc(NC(=O)c3c[nH]c(-c4c(-c5ccc(F)cc5)ncn4CC(F)(F)F)n3)cc1)C2 [Compound 193, 5′-(4-fluorophenyl)-N-(4-((1R,5S)-8-methyl-3,8-diazabicyclo[3.2.1]octan-3-yl)phenyl)-3′-(2,2,2-trifluoroethyl)-1H,3′H-[2,4′-biimidazole]-4-carboxamide] | > 10.00 | – | 6.92 to 7.92 | 6.92 to 7.92 |
| CN1CCN(c2ccc(NC(=O)c3c[nH]c(-c4c(-c5ccc(F)cc5)ncn4CC(F)(F)F)n3)cc2)CC1=O [Compound 194, 5′-(4-fluorophenyl)-N-(4-(4-methyl-3-oxopiperazin-1-yl)phenyl)-3′-(2,2,2-trifluoroethyl)-1H,3′H-[2,4′-biimidazole]-4-carboxamide] | 9.00 to 10.00 | – | < 6.92 | 6.92 to 7.92 |
